In US11414431B2, “Substituted pyrazolo[1,5-a]pyrimidines as TYK2 inhibitors” (Nimbus Lakshmi, Inc., priority 2018, dated 2022):

What follows are compounds tested on IL-12 induced STAT4 phosphorlyation mediated by TYK2/JAK2 (assay: IL-12 Induced pSTAT4 in Human PBMC). Conditions: 1.7 ng/mL IL-12 for 30 minutes.
Type: cell-based
Procedure, shortened: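 pSTAT4 and total STAT4 quantified by MSD in lysates of cryopreserved human PBMC after 30-minute stimulation with 1.7 ng/mL IL-12 (final). Compound was added 1 hr beforehand at 37° C, 0.1% DMSO final.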

Row | IC50 | SMILES
1 | < 0.1 µM | CNc1cc(-c2cn([C@H]3COC[C@H]3F)c3ncccc23)nc2c(C(=O)N[C@H]3CC[C@@H]3OC)cnn12 [Compound I-625]
2 | < 0.1 µM | CNc1cc(-c2cn([C@@H]3COC[C@H]3O)c3ncccc23)nc2c(C(=O)N[C@@H]3CC[C@H]3OC)cnn12 [Compound I-629]
3 | 0.1 to 0.5 µM | CNc1cc(-c2cn([C@H]3COC[C@@H]3O)c3ncccc23)nc2c(C(=O)NC3CC[C@@H]3OC)cnn12 (some centres unmarked) [Compound I-630]
4 | < 0.1 µM | CNc1cc(-c2cn([C@H]3COC[C@@H]3O)c3ncccc23)nc2c(C(=O)N[C@H]3CC[C@@H]3OC)cnn12 [Compound I-631]
5 | < 0.1 µM | CNc1cc(-c2cn([C@H]3COC[C@@H]3OC)c3ncccc23)nc2c(C(=O)NC3CC[C@@H]3OC)cnn12 (some centres unmarked) [Compound I-633]
6 | < 0.1 µM | CNc1cc(-c2cn([C@H]3COC[C@@H]3OC)c3ncccc23)nc2c(C(=O)N[C@H]3CC[C@@H]3OC)cnn12 [Compound I-634]
7 | < 0.1 µM | CNc1cc(-c2cn([C@@H]3COC[C@H]3OC)c3ncccc23)nc2c(C(=O)NC3CC[C@@H]3OC)cnn12 (some centres unmarked) [Compound I-636]
8 | < 0.1 µM | CNc1cc(-c2cn([C@@H]3COC[C@H]3OC)c3ncccc23)nc2c(C(=O)N[C@H]3CC[C@@H]3OC)cnn12 [Compound I-637]
9 | < 0.1 µM | CNc1cc(-c2cn([C@H]3CN(C)C[C@@H]3F)c3ncccc23)nc2c(C(=O)N[C@H]3CC[C@@H]3OC)cnn12 [Compound I-640]
10 | < 0.1 µM | CNc1cc(-c2cn([C@@H]3CN(C)C[C@H]3F)c3ncccc23)nc2c(C(=O)NC3CC[C@@H]3OC)cnn12 (some centres unmarked) [Compound I-642]
11 | < 0.1 µM | CNc1cc(-c2cn([C@@H]3CN(C)C[C@H]3F)c3ncccc23)nc2c(C(=O)N[C@H]3CC[C@@H]3OC)cnn12 [Compound I-643]
12 | < 0.1 µM | CNc1cc(-c2cn([C@H]3CCOC[C@@H]3F)c3ncccc23)nc2c(C(=O)NC3CC[C@@H]3OC)cnn12 (some centres unmarked) [Compound I-651]
13 | < 0.1 µM | CNc1cc(-c2cn([C@@H]3CCOC[C@H]3F)c3ncccc23)nc2c(C(=O)NC3CC[C@@H]3OC)cnn12 (some centres unmarked) [Compound I-652]
14 | < 0.1 µM | CNc1cc(-c2cn(C3COC3)c3ncccc23)nc2c(C(=O)NC3CCC3(F)F)cnn12 (centres unmarked) [Compound I-673]
15 | < 0.1 µM | CNc1cc(-c2cn(C3COC3)c3ncccc23)nc2c(C(=O)N[C@@H]3CCC3(F)F)cnn12 [Compound I-675]
16 | < 0.1 µM | CNc1cc(-c2cn(C3CN(C)C3)c3ncccc23)nc2c(C(=O)NC3CCC3(F)F)cnn12 (centres unmarked) [Compound I-676]
17 | < 0.1 µM | CNc1cc(-c2cn([C@@H]3CCN(C)C3)c3ncccc23)nc2c(C(=O)NC3CCC3(F)F)cnn12 (some centres unmarked) [Compound I-686]
18 | < 0.1 µM | CNc1cc(-c2cn([C@H]3CCC[C@H]3F)c3ncccc23)nc2c(C(=O)N[C@H]3COC[C@H]3O)cnn12 [Compound I-722]
19 | < 0.1 µM | CNc1ccc(-c2cc(NC)n3ncc(C(=O)N[C@H]4CC[C@H]4F)c3n2)n2ccnc12 [Compound I-784]

Continued, compound first:

Row | SMILES | IC50
20 | CNc1cc(-c2cn([C@@H]3CN(C)C[C@H]3OC)c3ncccc23)nc2c(C(=O)NC3CC[C@@H]3OC)cnn12 (some centres unmarked) [Compound I-645] | < 0.1 µM
21 | CNc1cc(-c2cn([C@@H]3CN(C)C[C@H]3OC)c3ncccc23)nc2c(C(=O)N[C@H]3CC[C@@H]3OC)cnn12 [Compound I-646] | < 0.1 µM
22 | CNc1cc(-c2cn([C@H]3CN(C)C[C@@H]3OC)c3ncccc23)nc2c(C(=O)N[C@H]3CC[C@@H]3OC)cnn12 [Compound I-649] | < 0.1 µM
23 | CNc1cc(-c2cn([C@H]3CCOC[C@@H]3OC)c3ncccc23)nc2c(C(=O)N[C@H]3CC[C@@H]3OC)cnn12 [Compound I-663] | < 0.1 µM
24 | CNc1cc(-c2cn([C@H]3CCOC[C@H]3OC)c3ncccc23)nc2c(C(=O)N[C@H]3CC[C@@H]3OC)cnn12 [Compound I-666] | < 0.1 µM
25 | CNc1cc(-c2cn([C@@H]3CCOC[C@@H]3OC)c3ncccc23)nc2c(C(=O)NC3CC[C@@H]3OC)cnn12 (some centres unmarked) [Compound I-668] | < 0.1 µM
26 | CNc1cc(-c2cn([C@@H]3CCOC[C@@H]3OC)c3ncccc23)nc2c(C(=O)N[C@H]3CC[C@@H]3OC)cnn12 [Compound I-669] | < 0.1 µM
27 | CNc1cc(-c2cn([C@H]3CCC4(C3)OCCO4)c3ncccc23)nc2c(C(=O)NC3CC[C@@H]3OC)cnn12 (some centres unmarked) [Compound I-671] | < 0.1 µM
28 | CNc1cc(-c2cn([C@@H]3CCC4(C3)OCCO4)c3ncccc23)nc2c(C(=O)NC3CC[C@@H]3OC)cnn12 (some centres unmarked) [Compound I-672] | < 0.1 µM
29 | CNc1cc(-c2cn([C@H]3C[C@@H](O)C3)c3ncccc23)nc2c(C(=O)NC3CCC3(F)F)cnn12 (some centres unmarked) [Compound I-677] | < 0.1 µM
30 | CNc1cc(-c2cn(C3CCCC3)c3ncccc23)nc2c(C(=O)NC3CCC3(F)F)cnn12 (centres unmarked) [Compound I-680] | < 0.1 µM
31 | CNc1cc(-c2cn(C3CCCC3)c3ncccc23)nc2c(C(=O)N[C@@H]3CCC3(F)F)cnn12 [Compound I-681] | < 0.1 µM
32 | CNc1cc(-c2cn(C3CCCC3)c3ncccc23)nc2c(C(=O)NC3CCC3(F)F)cnn12 (centres unmarked) [Compound I-683] | < 0.1 µM
33 | CNc1cc(-c2cn(C3CCCC3)c3ncccc23)nc2c(C(=O)N[C@H]3CCC3(F)F)cnn12 [Compound I-685] | < 0.1 µM
34 | CNc1cc(-c2cn([C@@H]3COC[C@H]3O)c3ncccc23)nc2c(C(=O)NC3CCC3(F)F)cnn12 (some centres unmarked) [Compound I-692] | < 0.1 µM
35 | CNc1cc(-c2cn([C@@H]3COC[C@H]3O)c3ncccc23)nc2c(C(=O)N[C@H]3CCC3(F)F)cnn12 [Compound I-693] | < 0.1 µM

Row | SMILES | IC50
36 | CNc1cc(-c2cn([C@H]3COC[C@@H]3O)c3ncccc23)nc2c(C(=O)NC3CCC3(F)F)cnn12 (some centres unmarked) [Compound I-695] | < 0.1 µM
37 | CNc1cc(-c2cn(C3CCOCC3)c3ncccc23)nc2c(C(=O)N[C@H]3CCC3(F)F)cnn12 [Compound I-699] | < 0.1 µM
38 | CNc1cc(-c2cn([C@@H]3CCOC[C@@H]3OC)c3ncccc23)nc2c(C(=O)NC3CCC3(F)F)cnn12 (some centres unmarked) [Compound I-702] | < 0.1 µM
39 | CNc1cc(-c2cn([C@@H]3CCOC[C@@H]3OC)c3ncccc23)nc2c(C(=O)N[C@H]3CCC3(F)F)cnn12 [Compound I-703] | < 0.1 µM
40 | CNc1cc(-c2cn([C@H]3CC3(F)F)c3ncccc23)nc2c(C(=O)NC3COC[C@H]3O)cnn12 (some centres unmarked) [Compound I-709] | 0.1 to 0.5 µM
41 | CNc1cc(-c2cn([C@H]3CC3(F)F)c3ncccc23)nc2c(C(=O)N[C@@H]3COC[C@@H]3O)cnn12 [Compound I-711] | < 0.1 µM
42 | CNc1cc(-c2cn([C@@H]3CC3(F)F)c3ncccc23)nc2c(C(=O)N[C@@H]3COC[C@@H]3O)cnn12 [Compound I-713] | 0.1 to 0.5 µM
43 | CNc1cc(-c2cn([C@H]3COC[C@H]3F)c3ncccc23)nc2c(C(=O)N[C@H]3COC[C@H]3O)cnn12 [Compound I-726] | < 0.1 µM
44 | CNc1cc(-c2cn([C@@H]3COC[C@@H]3F)c3ncccc23)nc2c(C(=O)N[C@@H]3COC[C@@H]3O)cnn12 [Compound I-730] | 0.1 to 0.5 µM
45 | CNc1cc(-c2cn([C@H]3COC[C@@H]3OC)c3ccccc23)nc2c(C(=O)NC3CC[C@@H]3OC)cnn12 (some centres unmarked) [Compound I-741] | < 0.1 µM
46 | CNc1cc(-c2cn([C@H]3COC[C@@H]3OC)c3ccccc23)nc2c(C(=O)N[C@H]3CC[C@@H]3OC)cnn12 [Compound I-742] | < 0.1 µM
47 | CNc1cc(-c2cn([C@@H]3COC[C@H]3OC)c3ccccc23)nc2c(C(=O)NC3CC[C@@H]3OC)cnn12 (some centres unmarked) [Compound I-744] | < 0.1 µM
48 | CNc1cc(-c2cn([C@@H]3COC[C@H]3OC)c3ccccc23)nc2c(C(=O)N[C@@H]3CC[C@H]3OC)cnn12 [Compound I-746] | < 0.1 µM
49 | CO[C@@H]1CC[C@H]1NC(=O)c1cnn2c3c(c(Nc4cccn(C(C)C)c4=O)nc12)OCCN3 [Compound I-760] | < 0.1 µM
50 | O=C(N[C@H]1CCC1(F)F)c1cnn2c3c(c(-c4cn([C@H]5C[C@H](O)C5)c5ncccc45)nc12)OCCN3 [Compound I-776] | < 0.1 µM
51 | CNc1cc(Nc2cccn([C@H]3C[C@@H](OC)C3)c2=O)nc2c(C(=O)NC3CC[C@@H]3OC)cnn12 (some centres unmarked) [Compound I-780] | < 0.1 µM

Same assay, conditions: 0.5 h, 1.7 ng/mL IL-12 for 30 minutes

Row | IC50 | SMILES
52 | < 0.1 µM | CNc1cc(-c2cn([C@H]3COC[C@H]3F)c3ncccc23)nc2c(C(=O)NC3CC[C@@H]3OC)cnn12 (stereo partly drawn) [Compound I-624, 5-(1-((3S,4S)-4-Fluorotetrahydrofuran-3-yl)-1H-pyrrolo[2,3-b]pyridin-3-yl)-N-((trans-1,2)-2-methoxycyclobutyl)-7-(methylamino)pyrazolo[1,5-a]pyrimidine-3-carboxamide]
53 | < 0.1 µM | CNc1cc(-c2cn([C@H]3CN(C)C[C@@H]3F)c3ncccc23)nc2c(C(=O)NC3CC[C@@H]3OC)cnn12 (stereo partly drawn) [Compound I-639, 5-(1-((3S,4S)-4-Fluoro-1-methylpyrrolidin-3-yl)-1H-pyrrolo[2,3-b]pyridin-3-yl)-N-((trans-1,2)-2-methoxycyclobutyl)-7-(methylamino)pyrazolo[1,5-a]pyrimidine-3-carboxamide]
54 | < 0.1 µM | CNc1cc(-c2cn([C@H]3CCC[C@H]3F)c3ncccc23)nc2c(C(=O)NC3COC[C@H]3O)cnn12 (stereo partly drawn) [Compound I-721, 5-(1-((1S,2R)-2-Fluorocyclopentyl)-1H-pyrrolo[2,3-b]pyridin-3-yl)-N-((cis-3,4)-4-hydroxytetrahydrofuran-3-yl)-7-(methylamino)pyrazolo[1,5-a]pyrimidine-3-carboxamide]

More lines, now with the values behind:

Row | SMILES | IC50
55 | CNc1cc(-c2cn([C@H]3CCOC[C@H]3OC)c3ncccc23)nc2c(C(=O)NC3CC[C@@H]3OC)cnn12 (stereo partly drawn) [Compound I-665, N-((trans-1,2)-2-Methoxycyclobutyl)-5-(1-((3S,4S)-3-methoxytetrahydro-2H-pyran-4-yl)-1H-pyrrolo[2,3-b]pyridin-3-yl)-7-(methylamino)pyrazolo[1,5-a]pyrimidine-3-carboxamide] | < 0.1 µM
56 | O=C(NC1CCC1(F)F)c1cnn2c3c(c(-c4cn([C@H]5C[C@H](O)C5)c5ncccc45)nc12)OCCN3 (stereo partly drawn) [Compound I-775, N-(2,2-Difluorocyclobutyl)-5-(1-((1r,3S)-3-hydroxycyclobutyl)-1H-pyrrolo[2,3-b]pyridin-3-yl)-2,3-dihydro-1H-pyrazolo[5′,1′:2,3]pyrimido [5,4-b][1,4]oxazine-7-carboxamide] | < 0.1 µM
